Measured values published in patent US20110033393A1, “Hydrazone Compounds and Their Use” (priority 2009, published 2011).

Columns and labels:
Beta-TC-6 cells = assay: Insulin release enhancement in insulinoma cell line Beta-TC-6 (Assay 1); assay type: cell-based, mouse
Experimental: Assay I: Insulin release enhancement by TRPM5 inhibitors was tested by the following procedure. Beta-TC-6 cells are an insulin-secreting cell line derived from transgenic mice expressing the large T-antigen of simian virus 40 (SV40) in pancreatic beta-cells as described by Poitout et al., Diabetes, 44:306-313 (1995). The cell line was obtained from ATCC cell bank CAT# CRL-11506 and grown in Dulbecco's Modified Eagle's Medium (DMEM) with 15% fetal bovine serum (FBS), 4 mM glutamine, 4.5 g/L glucose, 110 mg/L sodium pyruvate and 1× penn/strep antibiotic mix in a 37° C. incubator with 5% CO2. Cultures were routinely split 1:2 twice a week with the aid of trypsin.
The day before the assay 0.15×10^6 Beta-TC-6 cells were plated into each well of 96 well plates (Greiner bio-one V-bottom, Cat#: 651 180). The cells were spun at 1200 rpm for 5 min and cultured overnight. […] Insulin release in the supernatant was assessed using a commercially available ELISA kit (Mercodia Cat#: 10-1149-10) according to the manufacturer's protocol. The data were expressed as pg of insulin per number of cells. […]

[1] = test system: isolated rat primary islets; assay: Insulin release from isolated primary rat islets; assay type: cell-based
Experimental: Isolation of Rat Islets: Islets were isolated from 226-250 g male Sprague Dawley rats from Taconic. The animals were initially anesthetized with CO2 gas and euthanized by cervical dislocation. The pancreatic duct was injected with 15 to 30 ml of Collagenase P (Roche Diagnostics catalog #1 249 002) at 0.6 mg/ml in Hanks' Balanced Salt Solution (HBSS) (Gibco Catalog #14025-076) supplemented with BSA (Sigma, catalog #A 7409) to a final concentration of 0.1%. The pancreas was excised and placed into a 20 ml scintillation vial, incubated in a water bath at 37° C. for 16 to 18 minutes and then shaken briskly for at least 60 seconds. The digested tissue was poured into a 50 ml conical tube (1 per tube) containing cold Hank's Buffer supplemented with BSA (as above) and washed 7-10 times. […]
Measurement of Insulin Release: Insulin release measurements were carried out in Krebs-Ringer bicarbonate buffer (118.4 mmol/liter NaCl, 4.69 mmol/liter KCl, 1.2 mmol/liter MgSO4, 1.18 mmol/liter KH2PO4, 2.4 mmol/liter CaCl2, and 20 mmol/liter NaHCO3 (equilibrated with 95% O2 and 5% CO2, pH 7.4) supplemented with BSA to a final concentration of 0.1%). […] Insulin release in the supernatant was assessed using a commercially available ELISA kit (Mercodia-Cat. #10-1124-10) according to the manufacturer's protocol. The data were expressed as pg of insulin per number of cells. […]

## Cc1cc(/C=N/NC(=O)C2CC2c2ccccc2)cc2cccnc12 (racemic) [Example 10, trans-N′-((8-Methylquinolin-6-yl)methylene)-2-phenylcyclopropanecarbohydrazide]
Beta-TC-6 cells; Beta-TC-6, in the presence of 0.3 mM glucose
  insulin secretion: does not occur
Beta-TC-6 cells; Beta-TC-6, in the presence of 1 mM glucose
  insulin secretion: dose-dependent increase of insulin secretion
[1]; 3 mM glucose, compound up to 10 μM
  insulin secretion: insulin secretion is not observed
[1]; 12 mM glucose, compared to the DMSO control
  insulin secretion: significant dose-dependent increase in insulin secretion
